According to the NIST ThermoML archive (doi:10.1016/j.jct.2007.07.005):
± gives the expanded uncertainty stated by the source.

Test: xn = mol fraction of the nth substance listed
Settings: Fluid (supercritical or subcritical phases), vibrating tube

CCCCCO [pentan-1-ol] + O=C=O
mass density (313.17 K, 18027 kPa, x2 = 0.6054): 856.75 ± 0.45 kg/m3
mass density (313.17 K, 19070 kPa, x2 = 0.6054): 858.44 ± 0.45 kg/m3
mass density (313.17 K, 20036 kPa, x2 = 0.6054): 859.99 ± 0.45 kg/m3
mass density (313.17 K, 21030 kPa, x2 = 0.6054): 861.55 ± 0.46 kg/m3
mass density (313.17 K, 22042 kPa, x2 = 0.6054): 863.12 ± 0.46 kg/m3
mass density (313.17 K, 23036 kPa, x2 = 0.6054): 864.64 ± 0.46 kg/m3
mass density (313.17 K, 24020 kPa, x2 = 0.6054): 866.12 ± 0.46 kg/m3
mass density (313.17 K, 25040 kPa, x2 = 0.6054): 867.64 ± 0.46 kg/m3
mass density (322.89 K, 520 kPa, x2 = 0): 792.06 ± 0.43 kg/m3
mass density (322.89 K, 1010 kPa, x2 = 0): 792.47 ± 0.43 kg/m3
mass density (322.89 K, 2005 kPa, x2 = 0): 793.27 ± 0.43 kg/m3
mass density (322.89 K, 3007 kPa, x2 = 0): 794.07 ± 0.44 kg/m3
mass density (322.89 K, 4005 kPa, x2 = 0): 794.86 ± 0.44 kg/m3
mass density (322.89 K, 5018 kPa, x2 = 0): 795.63 ± 0.44 kg/m3
mass density (322.89 K, 6001 kPa, x2 = 0): 796.42 ± 0.44 kg/m3
mass density (322.89 K, 7016 kPa, x2 = 0): 797.2 ± 0.44 kg/m3
mass density (322.89 K, 8020 kPa, x2 = 0): 797.97 ± 0.44 kg/m3
mass density (322.89 K, 8997 kPa, x2 = 0): 798.71 ± 0.44 kg/m3
mass density (322.89 K, 10001 kPa, x2 = 0): 799.47 ± 0.44 kg/m3
mass density (322.89 K, 11005 kPa, x2 = 0): 800.21 ± 0.44 kg/m3
mass density (322.89 K, 11996 kPa, x2 = 0): 800.95 ± 0.44 kg/m3
mass density (322.89 K, 13002 kPa, x2 = 0): 801.68 ± 0.44 kg/m3
mass density (322.89 K, 14013 kPa, x2 = 0): 802.4 ± 0.44 kg/m3
mass density (322.89 K, 15005 kPa, x2 = 0): 803.11 ± 0.44 kg/m3
mass density (322.89 K, 16014 kPa, x2 = 0): 803.82 ± 0.45 kg/m3
mass density (322.89 K, 17001 kPa, x2 = 0): 804.51 ± 0.45 kg/m3
mass density (322.89 K, 18016 kPa, x2 = 0): 805.21 ± 0.45 kg/m3
mass density (322.89 K, 19012 kPa, x2 = 0): 805.89 ± 0.45 kg/m3
mass density (322.89 K, 19992 kPa, x2 = 0): 806.56 ± 0.45 kg/m3
mass density (322.89 K, 21036 kPa, x2 = 0): 807.26 ± 0.45 kg/m3
mass density (322.89 K, 22003 kPa, x2 = 0): 807.92 ± 0.45 kg/m3
mass density (322.89 K, 23024 kPa, x2 = 0): 808.61 ± 0.45 kg/m3
mass density (322.89 K, 23994 kPa, x2 = 0): 809.26 ± 0.45 kg/m3
mass density (322.89 K, 25023 kPa, x2 = 0): 810 ± 0.45 kg/m3
mass density (323.05 K, 3011 kPa, x2 = 0.0816): 797.79 ± 0.44 kg/m3
mass density (323.05 K, 4020 kPa, x2 = 0.0816): 798.67 ± 0.44 kg/m3
mass density (323.05 K, 5030 kPa, x2 = 0.0816): 799.53 ± 0.44 kg/m3
mass density (323.05 K, 6018 kPa, x2 = 0.0816): 800.37 ± 0.44 kg/m3
mass density (323.05 K, 7017 kPa, x2 = 0.3624): 815.3 ± 0.44 kg/m3
mass density (323.05 K, 7023 kPa, x2 = 0.0816): 801.2 ± 0.44 kg/m3
mass density (323.05 K, 8013 kPa, x2 = 0.0816): 802.02 ± 0.44 kg/m3
mass density (323.05 K, 8029 kPa, x2 = 0.4651): 820.04 ± 0.44 kg/m3
mass density (323.05 K, 8051 kPa, x2 = 0.3624): 816.51 ± 0.44 kg/m3
mass density (323.05 K, 9009 kPa, x2 = 0.4651): 821.63 ± 0.44 kg/m3
mass density (323.05 K, 9023 kPa, x2 = 0.0816): 802.84 ± 0.44 kg/m3
mass density (323.05 K, 9034 kPa, x2 = 0.3624): 817.64 ± 0.44 kg/m3
mass density (323.05 K, 9991 kPa, x2 = 0.4651): 823.23 ± 0.44 kg/m3
mass density (323.05 K, 10026 kPa, x2 = 0.0816): 803.67 ± 0.44 kg/m3
mass density (323.05 K, 10029 kPa, x2 = 0.3624): 818.77 ± 0.44 kg/m3
mass density (323.05 K, 11006 kPa, x2 = 0.0816): 804.46 ± 0.44 kg/m3
mass density (323.05 K, 11012 kPa, x2 = 0.4651): 824.81 ± 0.44 kg/m3
mass density (323.05 K, 11015 kPa, x2 = 0.8067): 800.23 ± 0.54 kg/m3
mass density (323.05 K, 11022 kPa, x2 = 0.3624): 819.83 ± 0.44 kg/m3
mass density (323.05 K, 11033 kPa, x2 = 0.9757): 625.72 ± 1.2 kg/m3
mass density (323.05 K, 11992 kPa, x2 = 0.0816): 805.23 ± 0.44 kg/m3
mass density (323.05 K, 11993 kPa, x2 = 0.4651): 826.28 ± 0.45 kg/m3
mass density (323.05 K, 11995 kPa, x2 = 0.9757): 668.32 ± 0.99 kg/m3
mass density (323.05 K, 12003 kPa, x2 = 0.3624): 820.86 ± 0.44 kg/m3
mass density (323.05 K, 12032 kPa, x2 = 0.8067): 808.05 ± 0.5 kg/m3
mass density (323.05 K, 13015 kPa, x2 = 0.3624): 821.9 ± 0.44 kg/m3
mass density (323.05 K, 13017 kPa, x2 = 0.9757): 699.41 ± 0.87 kg/m3
mass density (323.05 K, 13024 kPa, x2 = 0.4651): 827.83 ± 0.45 kg/m3
